The text below walks through data of USRE48711E1, “Apoptosis signal-regulating kinase inhibitors” (Gilead Sciences, Inc., priority 2009, dated 2021).

Usually IC50 stands for the midpoint of a concentration-inhibition curve. The low end stands for greater potency in that assay, the high end for weaker potency in that assay.

This assay deals with ASK1 (Apoptosis Signal-Regulating Kinase 1) (Homo sapiens (Human), UniProt Q99683). Put plainly: ASK1 (Apoptosis Signal-Regulating Kinase 1) TR-FRET Kinase Assay (Biochemical IC50). To be noted: TR-FRET, biotin-MBP substrate, 20 min pre-incubation, ATP added as 300 μM solution. For orientation: In TR-FRET formats the signal depends on donor and acceptor labels being close together.
ASK1 (Apoptosis Signal-Regulating Kinase 1), sequence (Q99683 649-946): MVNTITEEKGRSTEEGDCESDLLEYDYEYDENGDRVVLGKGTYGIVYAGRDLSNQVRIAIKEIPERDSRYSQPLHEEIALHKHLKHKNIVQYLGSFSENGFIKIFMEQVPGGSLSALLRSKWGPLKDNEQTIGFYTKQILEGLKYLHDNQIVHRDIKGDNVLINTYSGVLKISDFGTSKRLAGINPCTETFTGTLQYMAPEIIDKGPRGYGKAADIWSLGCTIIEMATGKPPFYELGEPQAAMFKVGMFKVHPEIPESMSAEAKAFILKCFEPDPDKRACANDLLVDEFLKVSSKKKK
`O=C(Nc1cccc(-c2nncn2C2CC2)c1)c1cccc(-c2ccc(C3CC3)nc2)n1` [Example 263, 6′-cyclopropyl-N-(3-(4-cyclopropyl-4H-1,2,4-triazol-3-yl)phenyl)-2,3′-bipyridine-6-carboxamide] yielded a half-maximal inhibitory concentration (IC50) of 3600 nM.

On to `Cc1nc(C2CC2)cn1-c1ccnc(C(=O)Nc2cccc(-c3nncn3C3CC3)n2)c1` [Example 183, 4-(4-cyclopropyl-2-methyl-1H-imidazol-1-yl)-N-(6-(4-cyclopropyl-4H-1,2,4-triazol-3-yl)pyridin-2-yl)picolinamide], for which the IC50 worked out at 8 nM.

In the case of `O=C(Nc1cccc(-c2nncn2C2CC2)n1)c1cc(F)cc(-n2cnc(C3CC3)c2)c1` [Example 205, 3-(4-cyclopropyl-1H-imidazol-1-yl)-N-(6-(4-cyclopropyl-4H-1,2,4-triazol-3-yl)pyridin-2-yl)-5-fluorobenzamide], the IC50 is 9 nM.

For the molecule `O=C(Nc1cccc(-c2nncn2C2CC2)c1)c1cc(-c2cnc(C3CC3)nc2)ccn1` [Example 123, N-(3-(4-cyclopropyl-4H-1,2,4-triazol-3-yl)phenyl)-4-(2-cyclopropylpyrimidin-5-yl)picolinamide], the IC50 was found to be 10 nM.

In the case of `C[C@H](O)Cn1cnnc1-c1cccc(NC(=O)c2cc(-c3cccnc3)ccn2)c1` [Example 35, (S)-N-(3-(4-(2-hydroxypropyl)-4H-1,2,4-triazol-3-yl)phenyl)-3,4′-bipyridine-2′-carboxamide], the IC50 is 87 nM.

In turn, `O=C(Nc1cccc(-c2nncn2C2CC2)c1)c1cc(-c2ccc(C3CCC3)nc2)ccn1` [Example 103, 6-cyclobutyl-N-(3-(4-cyclopropyl-4H-1,2,4-triazol-3-yl)phenyl)-3,4′-bipyridine-2′-carboxamide] showed an IC50 of 11 nM.

`O=C(Nc1cccc(-c2nncn2C2CC2)n1)c1cc(-c2ccc(C3CC3)nc2)ccn1` [Example 100, 6-cyclopropyl-N-(6-(4-cyclopropyl-4H-1,2,4-triazol-3-yl)pyridin-2-yl)-3,4′-bipyridine-2′-carboxamide] displayed an IC50 of 6 nM.

On to `O=C(Nc1cccc(-c2nncn2C2CC2)n1)c1cc(-n2cnc3c2CCCC3)ccn1` [Example 187, N-(6-(4-cyclopropyl-4H-1,2,4-triazol-3-yl)pyridin-2-yl)-4-(4,5,6,7-tetrahydro-1H-benzo[d]imidazol-1-yl)picolinamide], for which half-maximal inhibition (IC50) was put at 4 nM.

In turn, `CC(CN1CCCC1)n1cnnc1-c1cccc(NC(=O)c2cc(-c3ccc(C4CC4)nc3)ccn2)n1` (centres unmarked) [Example 245, 6-cyclopropyl-N-(6-(4-(1-(pyrrolidin-1-yl)propan-2-yl)-4H-1,2,4-triazol-3-yl)pyridin-2-yl)-3,4′-bipyridine-2′-carboxamide] had a concentration for half-maximal inhibition (IC50) of 36 nM.

For `NC(=O)CCn1cnnc1-c1cccc(NC(=O)c2cc(-c3cccnc3)ccn2)c1` [Example 16, N-(3-(4-(3-amino-3-oxopropyl)-4H-1,2,4-triazol-3-yl)phenyl)-3,4′-bipyridine-2′-carboxamide], the IC50 is 114 nM.

As for `Cn1cnnc1-c1cccc(NC(=O)c2cc(-c3ccccc3)ccn2)c1` [Example 4, N-(3-(4-methyl-4H-1,2,4-triazol-3-yl)phenyl)-4-phenylpicolinamide], the IC50 worked out at 701 nM.

Consider `CCc1cn(-c2ccnc(C(=O)Nc3cccc(-c4nncn4C4CC4)c3)c2)cn1` [Example 158, N-(3-(4-cyclopropyl-4H-1,2,4-triazol-3-yl)phenyl)-4-(4-ethyl-1H-imidazol-1-yl)picolinamide], for which the IC50 was found to be 5 nM.

Molecule `CC(C)n1cnnc1-c1cccc(NC(=O)c2cc(-n3cnc(C4CC4)c3)ccn2)c1` [Example 184, 4-(4-cyclopropyl-1H-imidazol-1-yl)-N-(3-(4-isopropyl-4H-1,2,4-triazol-3-yl)phenyl)picolinamide] had an IC50 of 20 nM.

With `O=C(Nc1cccc(-c2nncn2C2CC2)n1)c1cccc(-n2cnc(C3CC3)c2)c1` [Example 192, 3-(4-cyclopropyl-1H-imidazol-1-yl)-N-(6-(4-cyclopropyl-4H-1,2,4-triazol-3-yl)pyridin-2-yl)benzamide], the IC50 came out at 7 nM.

For `Cn1cncc1-c1ccnc(C(=O)Nc2cccc(-c3nncn3C)c2)c1` [Example 18, 4-(1-methyl-1H-imidazol-5-yl)-N-(3-(4-methyl-4H-1,2,4-triazol-3-yl)phenyl)picolinamide], the IC50 was 39 nM.

Molecule `O=C(Nc1cccc(-c2nncn2C2CC2)c1)c1cc(-n2cnc(-c3ccccc3)c2)ccn1` [Example 38, N-(3-(4-cyclopropyl-4H-1,2,4-triazol-3-yl)phenyl)-4-(4-phenyl-1H-imidazol-1-yl)picolinamide] gave an IC50 of 17 nM.

Molecule `Nc1ncc(-c2ccnc(C(=O)Nc3cccc(-c4nncn4C4CC4)c3)c2)cn1` [Example 25, 4-(2-aminopyrimidin-5-yl)-N-(3-(4-cyclopropyl-4H-1,2,4-triazol-3-yl)phenyl)picolinamide] registered an IC50 of 13 nM.

On to `O=C(Nc1cccc(-c2nncn2C2CC2)n1)c1cc(-c2cnc3ccccc3c2)ccn1` [Example 112, N-(6-(4-cyclopropyl-4H-1,2,4-triazol-3-yl)pyridin-2-yl)-4-(quinolin-3-yl)picolinamide], for which half-maximal inhibition (IC50) required 14 nM.

`O=C(Nc1cccc(-c2nncn2CC2(O)CC2)c1)c1cc(-c2cccnc2)ccn1` [Example 61, N-(3-(4-((1-hydroxycyclopropyl)methyl)-4H-1,2,4-triazol-3-yl)phenyl)-3,4′-bipyridine-2′-carboxamide] gave an IC50 of 174 nM.

In turn, `CC(C)n1cnnc1-c1cccc(NC(=O)c2cc(-c3ccc(C4CC4)nc3)ccn2)c1` [Example 219, 6-cyclopropyl-N-(3-(4-isopropyl-4H-1,2,4-triazol-3-yl)phenyl)-3,4′-bipyridine-2′-carboxamide] returned an IC50 of 16 nM.

For the molecule `CCCc1ccc(-c2ccnc(C(=O)Nc3cccc(-c4nncn4C4CC4)c3)c2)cn1` [Example 114, N-(3-(4-cyclopropyl-4H-1,2,4-triazol-3-yl)phenyl)-6-propyl-3,4′-bipyridine-2′-carboxamide], the IC50 worked out at 5 nM.

For the molecule `O=C(Nc1cccc(-c2nncn2C2CC2)c1)c1cc(-c2cncc(F)c2)ccn1` [Example 60, N-(3-(4-cyclopropyl-4H-1,2,4-triazol-3-yl)phenyl)-5-fluoro-3,4′-bipyridine-2′-carboxamide], the IC50 was determined as 23 nM.

In turn, `CN1CCc2c(ncn2-c2ccnc(C(=O)Nc3cccc(-c4nncn4C4CC4)c3)c2)C1C(F)(F)F` (centres unmarked) [Example 257, N-(3-(4-cyclopropyl-4H-1,2,4-triazol-3-yl)phenyl)-4-(5-methyl-4-(trifluoromethyl)-4,5,6,7-tetrahydro-1H-imidazo[4,5-c]pyridin-1-yl)picolinamide] came in with an IC50 of 6 nM.

In turn, `CCN1CCN(c2ccnc(C(=O)Nc3cccc(-c4nncn4C4CC4)c3)c2)CC1=O` [Example 177, N-(3-(4-cyclopropyl-4H-1,2,4-triazol-3-yl)phenyl)-4-(4-ethyl-3-oxopiperazin-1-yl)picolinamide] registered an IC50 of 47 nM.

`Cc1nc(C2CC2)cn1-c1ccnc(C(=O)Nc2cccc(-c3nncn3C3CC3)c2)c1` [Example 182, 4-(4-cyclopropyl-2-methyl-1H-imidazol-1-yl)-N-(3-(4-cyclopropyl-4H-1,2,4-triazol-3-yl)phenyl)picolinamide] registered an IC50 of 15 nM.

`CC(C)c1ccc(-c2ccnc(C(=O)Nc3cccc(-c4nncn4C4CC4)c3)c2)cn1` [Example 102, N-(3-(4-cyclopropyl-4H-1,2,4-triazol-3-yl)phenyl)-6-isopropyl-3,4′-bipyridine-2′-carboxamide]: the IC50 amounted to 9 nM.

On to `O=C(Nc1cccc(-c2nncn2C2CC2)c1)c1cc(-c2cncnc2)ccn1` [Example 24, N-(3-(4-cyclopropyl-4H-1,2,4-triazol-3-yl)phenyl)-4-(pyrimidin-5-yl)picolinamide], for which it took 21 nM to reach half-maximal inhibition (IC50).

`Cc1c(-c2ccnc(C(=O)Nc3cccc(-c4nncn4C4CC4)c3)c2)cnn1C` [Example 90, N-(3-(4-cyclopropyl-4H-1,2,4-triazol-3-yl)phenyl)-4-(1,5-dimethyl-1H-pyrazol-4-yl)picolinamide] had an IC50 of 38 nM.

In the case of `C[C@H]1C[C@@H]1n1cnnc1-c1cccc(NC(=O)c2cc(-c3cccnc3)ccn2)c1` [Example 55, N-(3-(4-((1S,2S)-2-methylcyclopropyl)-4H-1,2,4-triazol-3-yl)phenyl)-3,4′-bipyridine-2′-carboxamide], the IC50 was 24 nM.

For the molecule `Cn1cncc1-c1ccnc(C(=O)Nc2cccc(-c3nncn3C3CC3)c2)c1` [Example 36, N-(3-(4-cyclopropyl-4H-1,2,4-triazol-3-yl)phenyl)-4-(1-methyl-1H-imidazol-5-yl)picolinamide], the IC50 was 18 nM.

As to `COC[C@H](C)n1cnnc1-c1cccc(NC(=O)c2cc(-c3ccc(C4CC4)nc3)ccn2)c1` [Example 232, (S)-6-cyclopropyl-N-(3-(4-(1-methoxypropan-2-yl)-4H-1,2,4-triazol-3-yl)phenyl)-3,4′-bipyridine-2′-carboxamide], the midpoint of inhibition, the IC50, lay at 17 nM.

`O=C(Nc1cc(F)cc(-c2nncn2C2CC2)c1)c1cc(-c2ccc(C3CC3)nc2)ccn1` [Example 168, 6-cyclopropyl-N-(3-(4-cyclopropyl-4H-1,2,4-triazol-3-yl)-5-fluorophenyl)-3,4′-bipyridine-2′-carboxamide] returned an IC50 of 143 nM.

Regarding `C[C@@H](C(=O)OC(C)(C)C)n1cnnc1-c1cccc(NC(=O)c2cc(-c3ccc(C4CC4)nc3)ccn2)c1` [Example 222, (S)-tert-butyl 2-(3-(3-(6-cyclopropyl-3,4′-bipyridine-2′-carboxamido)phenyl)-4H-1,2,4-triazol-4-yl)propanoate], the 50% inhibitory concentration (IC50) was 79 nM.

In turn, `CC(C)[C@H](C)n1cnnc1-c1cccc(NC(=O)c2cc(-n3cnc(C4CC4)c3)ccn2)c1` [Example 264, (S)-4-(4-cyclopropyl-1H-imidazol-1-yl)-N-(3-(4-(3-methylbutan-2-yl)-4H-1,2,4-triazol-3-yl)phenyl)picolinamide] returned an IC50 of 23 nM.

In the case of `O=C(Nc1cccc(-c2nncn2C2CC2)c1)c1cc(-n2cncn2)ccn1` [Example 28, N-(3-(4-cyclopropyl-4H-1,2,4-triazol-3-yl)phenyl)-4-(1H-1,2,4-triazol-1-yl)picolinamide], the IC50 was determined as 110 nM.
